# Source: ChEMBL document CHEMBL1137771, “Non-nucleoside inhibitors of HCV polymerase NS5B. Part 2: Synthesis and structure-activity relationships of benzothiazine-substituted quinolinediones” (Bioorg Med Chem Lett, 2009)
# System: Hepatitis C virus
# Test: Inhibition of HCV genotype 1b isolate con1 NS5B polymerase assessed as incorporation of radiolabeled nucleotide into RNA product
# Set-up: species or system Hepacivirus hominis
# Conditions: not given
row,IC50,Compound
1,148 nM,O=c1c(C2=CS(=O)(=O)c3cc(F)ccc3N2)c(O)c2cc(F)ccc2n1Cc1ccc(F)cc1
2,25 nM,CNC(=O)COc1ccc2c(c1)S(=O)(=O)C=C(c1c(O)c3cc(F)ccc3n(Cc3ccc(F)cc3)c1=O)N2
3,7 nM,NS(=O)(=O)Nc1ccc2c(c1)S(=O)(=O)C=C(c1c(O)c3cc(F)ccc3n(Cc3ccc(F)cc3)c1=O)N2
4,68 nM,CS(=O)(=O)NCc1ccc2c(c1)S(=O)(=O)C=C(c1c(O)c3cc(F)ccc3n(Cc3ccc(F)cc3)c1=O)N2
5,2 nM,CS(=O)(=O)Nc1ccc2c(c1)S(=O)(=O)C=C(c1c(O)c3ccccc3n(Cc3ccc(F)cc3)c1=O)N2
6,22 nM,CS(=O)(=O)Nc1ccc2c(c1)S(=O)(=O)C=C(c1c(O)c3cc(F)ccc3n(Cc3cccnc3)c1=O)N2
7,10 nM,NC(=O)COc1ccc2c(c1)S(=O)(=O)C=C(c1c(O)c3cc(F)ccc3n(Cc3ccc(F)cc3)c1=O)N2
8,106 nM,CN(c1ccc2c(c1)S(=O)(=O)C=C(c1c(O)c3cc(F)ccc3n(Cc3ccc(F)cc3)c1=O)N2)S(C)(=O)=O
9,12 nM,CS(=O)(=O)Nc1ccc2c(c1)S(=O)(=O)C=C(c1c(O)c3c(Cl)cccc3n(Cc3ccc(F)cc3)c1=O)N2
10,3700 nM,CS(=O)(=O)c1ccc2c(c1)S(=O)(=O)C=C(c1c(O)c3cc(F)ccc3n(Cc3ccc(F)cc3)c1=O)N2
11,103 nM,CS(=O)(=O)Nc1ccc2c(c1)S(=O)(=O)C=C(c1c(O)c3cc(F)ccc3n(Cc3ccccn3)c1=O)N2
12,16 nM,CS(=O)(=O)Nc1ccc2c(c1)S(=O)(=O)C=C(c1c(O)c3cc(F)ccc3n(Cc3ccc(F)c(Cl)c3)c1=O)N2
13,734 nM,Nc1ccc2c(c1)S(=O)(=O)C=C(c1c(O)c3cc(F)ccc3n(Cc3ccc(F)cc3)c1=O)N2

# System: not listed separately
# Test: Cytotoxicity against human 2209-23 cells by WST1 assay
# Format: cell-based
# Conditions: not given
row,Compound,CC50
1,CS(=O)(=O)Nc1ccc2c(c1)S(=O)(=O)C=C(c1c(O)c3cc(F)ccc3n(Cc3ccc(F)cc3)c1=O)N2,> 50000 nM
2,O=c1c(C2=CS(=O)(=O)c3ccccc3N2)c(O)c2cc(F)ccc2n1Cc1ccc(F)cc1,> 50000 nM
3,O=c1c(C2=CS(=O)(=O)c3cc(F)ccc3N2)c(O)c2cc(F)ccc2n1Cc1ccc(F)cc1,> 50000 nM
4,CNC(=O)COc1ccc2c(c1)S(=O)(=O)C=C(c1c(O)c3cc(F)ccc3n(Cc3ccc(F)cc3)c1=O)N2,> 50000 nM
5,NS(=O)(=O)Nc1ccc2c(c1)S(=O)(=O)C=C(c1c(O)c3cc(F)ccc3n(Cc3ccc(F)cc3)c1=O)N2,> 50000 nM
6,CS(=O)(=O)NCc1ccc2c(c1)S(=O)(=O)C=C(c1c(O)c3cc(F)ccc3n(Cc3ccc(F)cc3)c1=O)N2,> 50000 nM
7,CS(=O)(=O)Nc1ccc2c(c1)S(=O)(=O)C=C(c1c(O)c3ccccc3n(Cc3ccc(F)cc3)c1=O)N2,> 50000 nM
8,CS(=O)(=O)Nc1ccc2c(c1)S(=O)(=O)C=C(c1c(O)c3cc(F)ccc3n(Cc3cccnc3)c1=O)N2,> 50000 nM
9,NC(=O)COc1ccc2c(c1)S(=O)(=O)C=C(c1c(O)c3cc(F)ccc3n(Cc3ccc(F)cc3)c1=O)N2,> 50000 nM
10,CN(c1ccc2c(c1)S(=O)(=O)C=C(c1c(O)c3cc(F)ccc3n(Cc3ccc(F)cc3)c1=O)N2)S(C)(=O)=O,> 50000 nM
11,CS(=O)(=O)Nc1ccc2c(c1)S(=O)(=O)C=C(c1c(O)c3c(Cl)cccc3n(Cc3ccc(F)cc3)c1=O)N2,> 50000 nM
12,CS(=O)(=O)c1ccc2c(c1)S(=O)(=O)C=C(c1c(O)c3cc(F)ccc3n(Cc3ccc(F)cc3)c1=O)N2,> 50000 nM
13,CS(=O)(=O)Nc1ccc2c(c1)S(=O)(=O)C=C(c1c(O)c3cc(F)ccc3n(Cc3ccccn3)c1=O)N2,> 50000 nM
14,CS(=O)(=O)Nc1ccc2c(c1)S(=O)(=O)C=C(c1c(O)c3cc(F)ccc3n(Cc3ccc(F)c(Cl)c3)c1=O)N2,> 50000 nM
15,Nc1ccc2c(c1)S(=O)(=O)C=C(c1c(O)c3cc(F)ccc3n(Cc3ccc(F)cc3)c1=O)N2,> 50000 nM

# System: Hepatitis C virus
# Test: Antiviral activity against HCV genotype 1b isolate con1 infected in human 2209-23 cells assessed as inhibition of [3H]thymidine incorporation into DNA by scintillation proximity assay in presence of 5% fetal bovine serum
# Format: functional, organism-based, Hepacivirus hominis
# Conditions: isolate Con1, 2209-23
row,EC50,Compound
1,14 nM,CS(=O)(=O)Nc1ccc2c(c1)S(=O)(=O)C=C(c1c(O)c3cc(F)ccc3n(Cc3ccc(F)cc3)c1=O)N2
2,726 nM,O=c1c(C2=CS(=O)(=O)c3ccccc3N2)c(O)c2cc(F)ccc2n1Cc1ccc(F)cc1
3,1280 nM,O=c1c(C2=CS(=O)(=O)c3cc(F)ccc3N2)c(O)c2cc(F)ccc2n1Cc1ccc(F)cc1
4,869 nM,CNC(=O)COc1ccc2c(c1)S(=O)(=O)C=C(c1c(O)c3cc(F)ccc3n(Cc3ccc(F)cc3)c1=O)N2
5,15 nM,NS(=O)(=O)Nc1ccc2c(c1)S(=O)(=O)C=C(c1c(O)c3cc(F)ccc3n(Cc3ccc(F)cc3)c1=O)N2
6,6930 nM,CS(=O)(=O)NCc1ccc2c(c1)S(=O)(=O)C=C(c1c(O)c3cc(F)ccc3n(Cc3ccc(F)cc3)c1=O)N2
7,42 nM,CS(=O)(=O)Nc1ccc2c(c1)S(=O)(=O)C=C(c1c(O)c3ccccc3n(Cc3ccc(F)cc3)c1=O)N2
8,589 nM,CS(=O)(=O)Nc1ccc2c(c1)S(=O)(=O)C=C(c1c(O)c3cc(F)ccc3n(Cc3cccnc3)c1=O)N2
9,1190 nM,NC(=O)COc1ccc2c(c1)S(=O)(=O)C=C(c1c(O)c3cc(F)ccc3n(Cc3ccc(F)cc3)c1=O)N2
10,1470 nM,CN(c1ccc2c(c1)S(=O)(=O)C=C(c1c(O)c3cc(F)ccc3n(Cc3ccc(F)cc3)c1=O)N2)S(C)(=O)=O
11,48 nM,CS(=O)(=O)Nc1ccc2c(c1)S(=O)(=O)C=C(c1c(O)c3c(Cl)cccc3n(Cc3ccc(F)cc3)c1=O)N2
12,11900 nM,CS(=O)(=O)c1ccc2c(c1)S(=O)(=O)C=C(c1c(O)c3cc(F)ccc3n(Cc3ccc(F)cc3)c1=O)N2
13,1200 nM,CS(=O)(=O)Nc1ccc2c(c1)S(=O)(=O)C=C(c1c(O)c3cc(F)ccc3n(Cc3ccccn3)c1=O)N2
14,18 nM,CS(=O)(=O)Nc1ccc2c(c1)S(=O)(=O)C=C(c1c(O)c3cc(F)ccc3n(Cc3ccc(F)c(Cl)c3)c1=O)N2
15,827 nM,Nc1ccc2c(c1)S(=O)(=O)C=C(c1c(O)c3cc(F)ccc3n(Cc3ccc(F)cc3)c1=O)N2

# System: Hepatitis C virus
# Test: Antiviral activity against HCV genotype 1b isolate con1 infected in human 2209-23 cells assessed as inhibition of [3H]thymidine incorporation into DNA by scintillation proximity assay in presence of 40% human serum albumin
# Format: functional, organism-based, Hepacivirus hominis
# Conditions: isolate Con1, 2209-23
row,EC50,Compound
1,542 nM,CS(=O)(=O)Nc1ccc2c(c1)S(=O)(=O)C=C(c1c(O)c3ccccc3n(Cc3ccc(F)cc3)c1=O)N2
2,593 nM,CS(=O)(=O)Nc1ccc2c(c1)S(=O)(=O)C=C(c1c(O)c3c(Cl)cccc3n(Cc3ccc(F)cc3)c1=O)N2

# System: Hepatitis C virus
# Test: Ratio of EC50 for HCV genotype 1b isolate con1 in presence of human serum albumin to EC50 for HCV genotype 1b isolate con1 in presence of fetal bovine serum
# Format: functional, Hepacivirus hominis
# Conditions: not given
row,Compound,fold change (FC)
1,CS(=O)(=O)Nc1ccc2c(c1)S(=O)(=O)C=C(c1c(O)c3cc(F)ccc3n(Cc3ccc(F)cc3)c1=O)N2,13
2,CS(=O)(=O)Nc1ccc2c(c1)S(=O)(=O)C=C(c1c(O)c3ccccc3n(Cc3ccc(F)cc3)c1=O)N2,13
3,CS(=O)(=O)Nc1ccc2c(c1)S(=O)(=O)C=C(c1c(O)c3c(Cl)cccc3n(Cc3ccc(F)cc3)c1=O)N2,12.3

# System: not listed separately
# Test: Dissociation constant, pKa of the compound
# Format: physicochemical
# Conditions: not given
row,pKa,Compound
1,3.8,CS(=O)(=O)Nc1ccc2c(c1)S(=O)(=O)C=C(c1c(O)c3cc(F)ccc3n(Cc3ccc(F)cc3)c1=O)N2

# System: not listed separately
# Test: Solubility of the compound
# Format: physicochemical
# Conditions: not given
row,solubility,Compound
1,8 µg/mL,O=c1c(C2=CS(=O)(=O)c3ccccc3N2)c(O)c2cc(F)ccc2n1CCC1CC1
2,< 1 µg/mL,O=c1c(C2=Nc3ccccc3S(=O)(=O)N2)c(O)c2cc(F)ccc2n1CCC1CC1

# System: Hepatitis C virus
# Test: Inhibition of HCV 1b isolate BK NS5B Cdelta21 polymerase expressed in Escherichia coli
# Set-up: species or system Hepatitis C virus subtype 1b
# Conditions: not given
row,IC50,Compound
1,30 nM,O=c1c(C2=Nc3ccccc3S(=O)(=O)N2)c(O)c2cc(F)ccc2n1CCC1CC1

# System: Hepatitis C virus
# Test: Antiviral activity against HCV genotype 1b infected in human HuH7 cells by replicon assay
# Format: functional, organism-based, Hepacivirus hominis
# Conditions: Huh-7
row,EC50,Compound
1,1200 nM,O=c1c(C2=CS(=O)(=O)c3ccccc3N2)c(O)c2cc(F)ccc2n1CCC1CC1

# System: not listed separately
# Test: Oral bioavailability in rat
# Format: ADME, organism-based
# Conditions: in vivo
row,bioavailability,Compound
1,79%,O=c1c(C2=CS(=O)(=O)c3ccccc3N2)c(O)c2cc(F)ccc2n1CCC1CC1
2,10%,O=c1c(C2=Nc3ccccc3S(=O)(=O)N2)c(O)c2cc(F)ccc2n1CCC1CC1
